# According to paper PMC10571957, “αV-Integrin-Dependent Inhibition of Glioblastoma Cell Migration, Invasion and Vasculogenic Mimicry by the uPAcyclin Decapeptide” (Cancers, 2023):
# Where “and” joins values, the source holds several entries; their conditions need not be identical. Equal values may be shown once.
# How the values were obtained:
# U138-MG cells = experiment: Boyden chamber Matrigel invasion, U138-MG; assay type: cell-based, human; settings: for invasion, % of basal, average 2 expts: mean of 2 expts; for invasion, % of basal, average expt 1: mean of expt 1; for invasion, % of basal, average expt 2: mean of expt 2; for invasion, % of basal, T-test list: single replicates of both expts
# Method: The migration and invasion assays were performed using Boyden chambers and 8 µm pore size PVP-free filters coated with 50 µg/mL of collagen type VI (Sigma), as previously described. For the invasion assays, collagen-coated filters were further coated with 50 µg/mL Matrigel^TM (Sigma). Briefly, 11 × 10^4 U87-MG, 4 × 10^4 U251-MG, or 4 × 10^4 U138-MG/sample were pre-treated for 40 min at 37 °C with the indicated effectors. Then, the cells were allowed to migrate for 3 h or to invade for 5 h at 37 °C toward 5% FBS in DMEM/0.1% BSA. At the end of both assays, the cells on the lower filter surface were fixed, stained with haematoxylin, and counted under an optical microscope (Zeiss Axiophot, Carl Zeiss, Milan, Italy) at 20× magnification. The migration and invasion experiments were conducted in triplicate for U87-MG and in duplicate for U251-MG and U138-MG. The migrated or invaded cells were reported as percentage of basal migration or invasion in the presence of DMEM/0.1% BSA, taken as 100%, and analyzed as reported in Section 2.11.
# Figure 4 Effect of uPAcyclin on matrix invasion of U87-MG, U251-MG, and U138-MG GBM cells. Quantitative analysis of U87-MG (A), U251-MG (B), and U138-MG (C) invasion. A total of 11 × 10^4 U87-MG or […] U251-MG or U138-MG/sample were pre-treated for 40 min at 37 °C with uPAcyclin (100 nM, 1 µM), anti-αV polyclonal (anti-αV-Pclonal) or monoclonal (anti-αV MoAb) antibody, or anti-actin polyclonal antibody (anti-actin), and then assayed in Boyden chambers at 37 °C, either for basal (BSA) or FBS-dependent invasion (5% FBS) for 5 h at 37 °C. Data are expressed as in the legend to Figure 3. Results are expressed as percentages with respect to the basal invasion, considered as 100% (* p-value < 0.05; ** p-value < 0.005; *** p-value < 0.001).
# VE-cadherin = VE-cadherin expression in matrix-recovered U251-MG cells (Western blot); assay type: cell-based, human; settings: 1 µM uPAcyclin, VM-forming U251-MG, 24 h
# Description: Whole cells were lysed as described, and resolved by SDS-PAGE, followed by Western blotting with PVDF membranes (Millipore, Burlington, MA, USA). The filters were probed with the following antibodies: polyclonal anti-VE Cadherin (Bioss Antibodies, Woburn, MA, USA), polyclonal anti-αV (Millipore), polyclonal anti-GAPDH (Elabscience, Houston, TX, USA), and polyclonal anti-actin (Sigma-Aldrich, St. Louis, MO, USA). Then, goat anti-rabbit IgG-HRP (Sigma) or goat anti-mouse IgG-HRP (Santa Cruz Biotechnology, Dallas, TX, USA) were employed as secondary antibodies. […] Films were imaged using the CanoScan 4400F (Canon, Tokyo, Japan) at 300 dpi, with the Adobe Photoshop Creative Suite 2 or CS2, and bands were quantified with the ImageJ 1.52a software (NIH, Bethesda, MD, USA).
# To analyze matrix-embedded U251-MG cells, cells undergoing VM for 24 h were extracted using a 2× mixture of Trypsin, Accutase, and Dispase (1:1:1), acting for 45 min at 37 °C. […] The supernatants were collected and the protein concentration was quantified using the Bradford assay (Biorad, Hercules, CA, USA).
# Figure 8 Vascular mimicry formation and VE-cadherin expression inhibited by uPAcyclin in U251-MG cells. […] (B) The quantitation of the branching point number is described in the legend to Figure 6B. […] The densitometric quantitation of VE-cadherin bands is shown (right panel) (* p-value < 0.05; *** p-value < 0.001).
# [1] = 100 nM, 5% FBS, 5 h, expt 1, duplicates
# [2] = 100 nM, 5% FBS, 5 h, expt 2, duplicates
# [3] = 1 µM, 5% FBS, 5 h, expt 1, duplicates
# [4] = 1 µM, 5% FBS, 5 h, expt 2, duplicates
substance,measurement,setting,value
Ac-K^1P[ESPPEELK^10]-NH2 (sidechain bridge or staple) [uPAcyclin],reduction in invasion,"U138-MG cells; 100 nM, U138-MG, 5% FBS, 5 h",50–60%
same,invaded cell number/field,U138-MG cells; [1],10 cell number/field and 8 cell number/field
same,"invasion, % of basal",U138-MG cells; [1],143% and 114%
same,invaded cell number/field,U138-MG cells; [2],9 cell number/field and 8 cell number/field
same,"invasion, % of basal",U138-MG cells; [2],150% and 133%
same,"invasion, % of basal, average 2 expts","U138-MG cells; 100 nM, 5% FBS, 5 h",135%
same,"invasion, % of basal, average expt 1","U138-MG cells; 100 nM, 5% FBS, 5 h",129%
same,"invasion, % of basal, average expt 2","U138-MG cells; 100 nM, 5% FBS, 5 h",142%
same,"invasion, % of basal, T-test list",U138-MG cells; 100 nM,143 and 114 and 150 and 133
same,"invasion, in words","U138-MG cells; 1 µM, U138-MG, 5% FBS, 5 h",reduced invasion to basal levels
same,invaded cell number/field,U138-MG cells; [3],7 cell number/field and 6 cell number/field
same,"invasion, % of basal",U138-MG cells; [3],100% and 86%
same,invaded cell number/field,U138-MG cells; [4],6 cell number/field and 5 cell number/field
same,"invasion, % of basal",U138-MG cells; [4],100% and 83%
same,"invasion, % of basal, average 2 expts","U138-MG cells; 1 µM, 5% FBS, 5 h",92%
same,"invasion, % of basal, average expt 1","U138-MG cells; 1 µM, 5% FBS, 5 h",93%
same,"invasion, % of basal, average expt 2","U138-MG cells; 1 µM, 5% FBS, 5 h",92%
same,"invasion, % of basal, T-test list",U138-MG cells; 1 µM,100 and 86 and 83
same,VE-cadherin expression,VE-cadherin,markedly reduced
